Drawing on patent US4016159A, “Acylamino-cephem-carboxylic acids containing an amidino or guanidino group in the molecule” (Hoechst Aktiengesellschaft, priority 1973, dated 1977), this text covers MIC for eleven compounds.

Structures are written as SMILES. In brackets after ≈: the same amount, converted by molar mass.

Holding throughout (type): cell-based
One experiment has as its system Streptococcus D. In words: Minimum inhibition concentration (MIC), Table 4. Conditions: Streptococcus, Germ: Streptococcus D; read-out: Minimum inhibition concentration (MIC). An excerpt:
(§1) Minimum inhibition concentration (MIC) in γ/ml

The subject of experiment [1] is Staphylococcus aureus SG 511. In words: Minimum inhibition concentration (MIC), Table 5. The note with it: Staphylococcus aureus, SG511, Germ: Staphylococcus aureus SG 511; read-out: Minimum inhibition concentration (MIC).
From the text: as §1
Germ: Staphylococcus aureus SG 511

Experiment [2] deals with Staphylococcus aureus 285. As to the kind of experiment: Minimum inhibition concentration (MIC), Table 1. Conditions: Staphylococcus aureus, 285, Germ: Staphylococcus aureus 285; read-out: Minimum inhibition concentration (MIC).
From the text: as §1
Germ: Staphylococcus aureus 285

For a further experiment, the system named is Streptococcus pyogenes A. As to the kind of experiment: Minimum inhibition concentration (MIC), Table 3. Conditions: Germ: Streptococcus pyogenes A; read-out: Minimum inhibition concentration MIC. From the text: Minimum inhibition concentration MIC in γ/ml
Germ: Streptococcus pyogenes A

With `N=C(N)c1ccc(OCC(=O)NC2C(=O)N3C(C(=O)O)=C(CSc4nnnn4-c4ccccc4)CSC23)cc1` (centres unmarked) [Example 31, 3-[(1-phenyl-1-H-tetrazole-5yl)-thiomethyl]-7-(4-amidinophenoxyacetamido)-Δ3-cephem-4-carboxylic acid], the MIC lay in the range of 10 to 50 µg/mL (≈ 17.6 to 88.2 µM) with Streptococcus D, 0.0196 to 0.0391 µg/mL (≈ 0.0346 to 0.069 µM) in experiment [1], 0.156 to 0.391 µg/mL (≈ 0.275 to 0.69 µM) in experiment [2] and 0.391 to 7.8 ng/mL (≈ 0.00069 to 0.0138 µM) with Streptococcus pyogenes A.

Regarding `CCCCCCNC(=N)c1ccc(OCC(=O)NC2C(=O)N3C(C(=O)O)=C(CSc4nnc(C)o4)CSC23)cc1` (centres unmarked) [Example 32, 3-[(5-methyl-1,3,4-oxadiazole-2-yl)-thiomethyl]-7-[4-(N-n-hexylamidino)-phenoxyacetamido]-Δ 3-cephem-4-carboxylic acid], the MIC in the experiment on Streptococcus D lay within 10 to 50 µg/mL (≈ 17 to 84.9 µM); in experiment [1], 0.0625 to 0.078 µg/mL (≈ 0.106 to 0.132 µM); in experiment [2], 0.156 to 0.391 µg/mL (≈ 0.265 to 0.664 µM); with Streptococcus pyogenes A, 0.391 to 7.8 ng/mL (≈ 0.000664 to 0.0132 µM).

Consider `CCCCCCNC(=N)c1ccc(OCC(=O)NC2C(=O)N3C(C(=O)O)=C(CSc4nnc(C)s4)CSC23)cc1` (centres unmarked) [Example 33, 3-[(5-methyl-1,3,4-thiadiazole-2-yl)-thiomethyl]-7-[4-(N-n-hexylamidion)-phenoxyacetamido]-Δ 3-cephem-4-carboxylic acid], for which the MIC in the experiment on Streptococcus D was 0.196 to 6.25 µg/mL (≈ 0.324 to 10.3 µM); in experiment [1] it was 0.0625 to 0.078 µg/mL (≈ 0.103 to 0.129 µM); in experiment [2], 0.156 to 0.391 µg/mL (≈ 0.258 to 0.647 µM); in the experiment with Streptococcus pyogenes A, 0.391 to 7.8 ng/mL (≈ 0.000647 to 0.0129 µM).

In the case of `Cc1nnc(SCC2=C(C(=O)O)N3C(=O)C(NC(=O)COc4ccc(C5=NCCCN5)cc4)C3SC2)s1` (centres unmarked) [Example 34, 3-[(5-methyl-1,3,4-thiadizole-2-yl)-thiomethyl]-7-[4-(1,4,5,6-tetrahydropyromide-2-yl)-phenoxyacetamido]-Δ 3-cephem-4-carboxylic acid], the MIC lay in the range of 0.196 to 6.25 µg/mL (≈ 0.35 to 11.1 µM) in the experiment with Streptococcus D, 0.0625 to 0.078 µg/mL (≈ 0.111 to 0.139 µM) in experiment [1], 0.5 to 1.25 µg/mL (≈ 0.892 to 2.23 µM) in experiment [2] and 8 to 15.6 ng/mL (≈ 0.0143 to 0.0278 µM) in the experiment with Streptococcus pyogenes A.

For `Cc1nnc(SCC2=C(C(=O)O)N3C(=O)C(NC(=O)COc4ccc(C(=N)N)cc4)C3SC2)o1` (centres unmarked) [Example 38, 3-[(5-methyl-1,3,4-oxadiazole-2-yl)-thiomethyl]-7-(4-amidinophenoxy-acetamido)-Δ 3-cephem-4-carboxylic acid], the MIC in the experiment with Streptococcus D lay within 10 to 50 µg/mL (≈ 19.8 to 99.1 µM); in experiment [1] it was 0.0625 to 0.078 µg/mL (≈ 0.124 to 0.155 µM); in experiment [2], 0.156 to 0.391 µg/mL (≈ 0.309 to 0.775 µM); with Streptococcus pyogenes A, 8 to 15.6 ng/mL (≈ 0.0159 to 0.0309 µM).

Consider `CCCCCCNC(=N)c1ccc(OCC(=O)NC2C(=O)N3C(C(=O)O)=C(CSc4nnc(-c5ccccc5)o4)CSC23)cc1` (centres unmarked) [Example 39], for which the MIC in the experiment with Streptococcus D fell in the range of 10 to 50 µg/mL (≈ 15.4 to 76.8 µM); in experiment [1], 0.0196 to 0.0391 µg/mL (≈ 0.0301 to 0.0601 µM); in experiment [2], 0.5 to 1.25 µg/mL (≈ 0.768 to 1.92 µM); with Streptococcus pyogenes A, 8 to 15.6 ng/mL (≈ 0.0123 to 0.024 µM).

Regarding `O=C(COc1ccc(C2=NCCCN2)cc1)NC1C(=O)N2C(C(=O)O)=C(CSc3nnc(-c4ccccc4)s3)CSC12` (centres unmarked) [Example 50], the MIC with Streptococcus D lay in the range of 0.196 to 6.25 µg/mL (≈ 0.315 to 10 µM); in experiment [1], 0.0196 to 0.0391 µg/mL (≈ 0.0315 to 0.0628 µM); in experiment [2], 0.156 to 0.391 µg/mL (≈ 0.251 to 0.628 µM); in the experiment on Streptococcus pyogenes A, 0.391 to 7.8 ng/mL (≈ 0.000628 to 0.0125 µM).

`O=C(COc1ccc(C2=NCCCN2)cc1)NC1C(=O)N2C(C(=O)O)=C(CSc3nnc(-c4ccccc4)o3)CSC12` (centres unmarked) [Example 51, 3-[(5-phenyl-1,3,4-oxadiazole-2-yl)-thiomethyl]-7-[4-(1,4,5,6-tetrahydropyrimide-2-yl)-phenoxyacetamido]-Δ 3-cephem-4-carboxylic acid]: the MIC lay within 0.196 to 6.25 µg/mL (≈ 0.323 to 10.3 µM) in the experiment with Streptococcus D, 0.0196 to 0.0391 µg/mL (≈ 0.0323 to 0.0644 µM) in experiment [1], 0.156 to 0.391 µg/mL (≈ 0.257 to 0.644 µM) in experiment [2] and 0.391 to 7.8 ng/mL (≈ 0.000644 to 0.0129 µM) with Streptococcus pyogenes A.

As for `O=C(Cc1ccc(C2=NCCN2)cc1)NC1C(=O)N2C(C(=O)O)=C(CSc3nnc(-c4ccccc4)s3)CSC12` (centres unmarked) [Example 52, 3-[(5-phenyl-1,3,4-thiadiazole-2-yl)-thiomethyl]-7-[4-(imidazoline-2-yl)-phenylacetamido] -Δ 3-cephem-4-carboxylic acid], the MIC in the experiment with Streptococcus D lay within 0.196 to 6.25 µg/mL (≈ 0.331 to 10.5 µM); in experiment [1], 0.0196 to 0.0391 µg/mL (≈ 0.0331 to 0.066 µM); in experiment [2], 0.156 to 0.391 µg/mL (≈ 0.263 to 0.66 µM); in the experiment with Streptococcus pyogenes A, 0.391 to 7.8 ng/mL (≈ 0.00066 to 0.0132 µM).

Turning to `CCCCc1nnc(SCC2=C(C(=O)O)N3C(=O)C(NC(=O)Cc4ccc(C(=N)N)cc4)C3SC2)o1` (centres unmarked) [Example 54, 3-[(5-n-butyl-1,3,4-oxadiazole-2-yl)-thiomethyl]-7-(4-amidino-phenylacetamido)-Δ 3-cephem-4-carboxylic acid], the MIC was in the range of 10 to 50 µg/mL (≈ 18.8 to 94.2 µM) in the experiment on Streptococcus D, 0.0196 to 0.0391 µg/mL (≈ 0.0369 to 0.0737 µM) in experiment [1], 0.156 to 0.391 µg/mL (≈ 0.294 to 0.737 µM) in experiment [2] and 0.391 to 7.8 ng/mL (≈ 0.000737 to 0.0147 µM) in the experiment on Streptococcus pyogenes A.

For `N=C(N)c1ccc(CC(=O)NC2C(=O)N3C(C(=O)O)=C(CSc4nnc(-c5ccccc5)o4)CSC23)cc1` (centres unmarked) [Example 56, 3-[(5-phenyl-1,3,4-oxadiazole-2-yl)-thiomethyl]-7-(4-amidinophenylacetamido)-Δ 3-cephem-4-carboxylic acid], the MIC lay within 10 to 50 µg/mL (≈ 18.2 to 90.8 µM) in the experiment with Streptococcus D, 0.0196 to 0.0391 µg/mL (≈ 0.0356 to 0.071 µM) in experiment [1], 0.156 to 0.391 µg/mL (≈ 0.283 to 0.71 µM) in experiment [2] and 0.391 to 7.8 ng/mL (≈ 0.00071 to 0.0142 µM) in the experiment with Streptococcus pyogenes A.
